Blank lines part the entries; values can stand above or below the compound they belong to.
What was measured:
[1] = target: T1, histidine-tagged TPMT enzyme (Homo sapiens, UniProt P51580); test: AdoVin-TNB binding assay, histidine-tagged TPMT isolated using nickel spin column; conditions: XIC (FIG. 30 top panel)
T1 construct: made in house
T1 sequence (P51580 1-245): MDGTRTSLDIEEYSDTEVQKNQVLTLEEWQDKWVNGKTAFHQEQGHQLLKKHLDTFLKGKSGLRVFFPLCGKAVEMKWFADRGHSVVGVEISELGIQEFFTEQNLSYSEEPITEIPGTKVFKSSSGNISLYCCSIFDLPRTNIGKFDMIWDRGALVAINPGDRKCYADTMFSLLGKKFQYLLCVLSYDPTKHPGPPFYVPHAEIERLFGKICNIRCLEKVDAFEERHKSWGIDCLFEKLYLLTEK
Protocol: The histidine-tagged TPMT enzyme was isolated using nickel spin column. 610.0 m/z at 8.6 min is for the TNB-AdoVin adduct (confirmed by tandem mass analysis), 411.0 m/z at 1.6 min is for AdoVin, and 162.0 m/z at 6.2 min is for vinthionine. […] The peak around 1.58 minutes with m/z 411.0 corresponds to AdoVin, while the peak around 6.2 min with m/z 162.0 corresponds to vinthionine.
Recombinant histidine-tagged human thiopurine methyltransferase (TPMT, EC 2.1.1.67) and S-adenosylhomocysteine nucleosidase (MTAN, EC 3.2.2.9) were purified as described. See Cannon, L. M. et al. Anal. Biochem. 2002, 308, 35/-363; Lee, J. E. et al. Acta Crystallogr. D. Biol. Crystallogr. 2001, 57, 150-152. The recombinant E. coli homocysteine S-methyltransferase (HMT, EC 2.1.1.10) was a gift from Steven G Clark (UCLA Department of Chemistry and Biochemistry, Los Angeles, Calif.), and purified as described. See Vinci, C. R.; Clarke, S. G. J. Biol. Chem. 2010, 285(27), 20526-20531; Vinci, C. R.; Clarke, S. G. J. Biol. Chem. 2007, 282(12), 8604-8612.

[2] = tested on: cells; conditions: cited from earlier work
[3] = target: T2, TPMT (Homo sapiens, UniProt P51580); test: specificity assay with AdoVin (time-dependent UV absorbance change); format: biochemical; conditions: FIG. 34
T2 construct: made in house
T2 sequence (P51580 1-245): T1 sequence (P51580 1-245)
Description: In comparison, the concentration of 4-methoxybenzylthiol decreased in the presence of AdoVin, indicating a reaction with AdoVin.

[4] = target: T2, TPMT; conditions: data referred to for comparison; cited from earlier work
[5] = tested on: mammalian cells; conditions: cited from earlier work
[6] = tested on: trypanosomes; conditions: Goldberg 1997; cited from earlier work
[7] = tested on: Leishmania promastigotes; conditions: Lawrence 1993, Avila 1993; cited from earlier work
[8] = tested on: Candida albicans and various Aspergillus species; conditions: cited from earlier work
[9] = target: T3, human betaine-homocysteine S-methyltransferase (Homo sapiens, UniProt Q93088); conditions: cited from earlier work
T3 sequence (Q93088 1-406): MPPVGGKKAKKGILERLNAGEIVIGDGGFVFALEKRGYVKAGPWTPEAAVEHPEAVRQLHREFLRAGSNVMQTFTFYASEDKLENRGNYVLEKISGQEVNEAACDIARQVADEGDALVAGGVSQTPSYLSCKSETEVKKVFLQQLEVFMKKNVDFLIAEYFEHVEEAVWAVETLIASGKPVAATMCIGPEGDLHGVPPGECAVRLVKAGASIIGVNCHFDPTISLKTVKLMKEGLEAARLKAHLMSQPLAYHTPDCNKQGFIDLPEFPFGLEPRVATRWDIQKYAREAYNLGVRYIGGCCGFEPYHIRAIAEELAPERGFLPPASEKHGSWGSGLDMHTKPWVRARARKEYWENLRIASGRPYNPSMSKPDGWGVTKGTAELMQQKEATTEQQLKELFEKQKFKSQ

presence in the enzyme complex [1]: absence
SMILES: C=CSCC[C@H](N)C(=O)O [vinthionine, S-Demethyl-5-vinyl-L-methionine]
cell permeability [2]: cell permeable

SMILES: O=[N+]([O-])c1ccc(O)cc1 [4-nitrophenol]
time-dependent UV absorbance / concentration change in the presence of AdoVin [3]: No change was observed | reaction with AdoMet (the natural substrate for TPMT) [4]: does not react

SMILES: C=CSCC[C@H](N)C(=O)O [L-S-Vinylhomocysteine]
active transport into cells [2]: actively transported into cells

SMILES: C[S+](CC[C@H](N)C(=O)[O-])C[C@H]1O[C@@H](n2cnc3c(N)ncnc32)[C@H](O)[C@@H]1O (stereo partly drawn) [AdoMet, S-Adenosyl-methionine]
active transport into mammalian cells [5]: not actively transported | active transport into trypanosomes [6]: actively transported | active transport into Leishmania promastigotes [7]: actively transported | active transport into Candida albicans and various Aspergillus species [8]: actively transported

SMILES: C=CSCCC(N)C(=O)O (racemic) [DL-S-Vinylhomocysteine]
inhibition of human betaine-homocysteine S-methyltransferase [9]: not to be an inhibitor

time-dependent UV absorbance / concentration change in the presence of AdoVin [3]: decreased
SMILES: COc1ccc(CS)cc1 [4-methoxybenzylthiol]
reaction with AdoMet (the natural substrate for TPMT) [4]: reacts
